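Following 48 hours of exposure in 96-well plates, responses at five concentrations were used to interpolate endpoints linearly. The concentration for 50% growth inhibition is given as GI50.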 Calls of active or inactive are those of the source. No stated cut-off is given here; in the data, active = GI50 up to about 1.1 µM and inactive = higher. Peptide text beside a SMILES is read from it.
Key:
Assay in all cases: NCI-60 cell line screen, 48 h
[1] = tested on: A549
[2] = tested on: ACHN
[3] = tested on: HL-60
[4] = tested on: Hs-578T
[5] = tested on: K562
[6] = tested on: MDA-MB-231
[7] = tested on: MDA-N
[8] = tested on: MOLT-4
[9] = tested on: Malme-3M
[10] = tested on: NCI-H522
[11] = tested on: OVCAR-4
[12] = tested on: OVCAR-5
[13] = tested on: OVCAR-8
[14] = tested on: PC-3
[15] = tested on: RPMI-8226
[16] = tested on: SK-MEL-28
[17] = tested on: SK-MEL-2
[18] = tested on: SN12C
[19] = tested on: TK-10
[20] = tested on: SF-268

Structure (SMILES) | GI50 [1] | GI50 [2] | GI50 [3] | GI50 [4] | GI50 [5] | GI50 [6] | GI50 [7] | GI50 [8] | GI50 [9] | GI50 [10] | GI50 [11] | GI50 [12] | GI50 [13] | GI50 [14] | GI50 [15] | GI50 [16] | GI50 [17] | GI50 [18] | GI50 [19] | GI50 [20]
CCN(CC)P1(=S)Oc2ccc3ccccc3c2-c2c(ccc3ccccc23)O1 | > 100 µM (inactive) | 67.3 µM (inactive) | > 100 µM (inactive) | 40.3 µM (inactive) | > 100 µM (inactive) | > 100 µM (inactive) | 51.2 µM (inactive) | > 100 µM (inactive) | 72.8 µM (inactive) | 60.1 µM (inactive) | 99.3 µM (inactive) | > 100 µM (inactive) | > 100 µM (inactive) | > 100 µM (inactive) | > 100 µM (inactive) | > 100 µM (inactive) | > 100 µM (inactive) | > 100 µM (inactive) | > 100 µM (inactive) | 
FC1(F)SC2CCCCCCCCCCC2C1(F)F (stereo not given) | 35 µM (inactive) | 25.3 µM (inactive) | 15.4 µM (inactive) | 36.1 µM (inactive) | 15.3 µM (inactive) | 22.8 µM (inactive) | 37.6 µM (inactive) | 28.2 µM (inactive) | 21.8 µM (inactive) | 21.8 µM (inactive) | 22.1 µM (inactive) | 47.5 µM (inactive) | 40.9 µM (inactive) | 42.6 µM (inactive) | 59.7 µM (inactive) | 18.5 µM (inactive) | 18.2 µM (inactive) |  | 56.2 µM (inactive) | 29.2 µM (inactive)
Cc1nc(NC(C)(CO)CO)nc(N/N=C/c2ccc(Cl)cc2)c1C(=O)Nc1ccc(Cl)cc1 | 77.3 µM (inactive) | 47.9 µM (inactive) | > 100 µM (inactive) | > 100 µM (inactive) | > 100 µM (inactive) | > 100 µM (inactive) | > 100 µM (inactive) | 65.5 µM (inactive) | > 100 µM (inactive) | 48.1 µM (inactive) | > 100 µM (inactive) | > 100 µM (inactive) | > 100 µM (inactive) | > 100 µM (inactive) | > 100 µM (inactive) | > 100 µM (inactive) | > 100 µM (inactive) | > 100 µM (inactive) | > 100 µM (inactive) | > 100 µM (inactive)
Cc1cccc(Cl)c1NC(=O)/C=C/c1ccccc1 | 94 µM (inactive) | 42.3 µM (inactive) | 84.1 µM (inactive) | 33 µM (inactive) | > 100 µM (inactive) | 32.4 µM (inactive) | > 100 µM (inactive) | > 100 µM (inactive) | > 100 µM (inactive) | 49.3 µM (inactive) | 26.9 µM (inactive) | > 100 µM (inactive) | 26.1 µM (inactive) | > 100 µM (inactive) | 32.3 µM (inactive) | > 100 µM (inactive) | > 100 µM (inactive) | 80.5 µM (inactive) | 40.6 µM (inactive) | 67 µM (inactive)
CCOC(=O)C(C(=O)OCC)C(NC(=O)Nc1cc(C(F)(F)F)ccc1OC)(C(F)(F)F)C(F)(F)F | 39.4 µM (inactive) | 29.1 µM (inactive) | 21.8 µM (inactive) | 25.2 µM (inactive) | 24.2 µM (inactive) | 17.4 µM (inactive) | 33.2 µM (inactive) | 24 µM (inactive) | 24.5 µM (inactive) | 22.3 µM (inactive) | 23.2 µM (inactive) | 45.8 µM (inactive) | 31.6 µM (inactive) | 39.6 µM (inactive) | 18.8 µM (inactive) | 37.5 µM (inactive) |  | 27.5 µM (inactive) | 59 µM (inactive) | 36.4 µM (inactive)
Cc1ccc(C2=Nn3c(nc4sc5c(c4c3=O)CCCC5)SC2)cc1 | > 100 µM (inactive) | > 100 µM (inactive) | > 100 µM (inactive) | 35.7 µM (inactive) | > 100 µM (inactive) | > 100 µM (inactive) | > 100 µM (inactive) | > 100 µM (inactive) | > 100 µM (inactive) | > 100 µM (inactive) | > 100 µM (inactive) | > 100 µM (inactive) | > 100 µM (inactive) | > 100 µM (inactive) | > 100 µM (inactive) | > 100 µM (inactive) |  | > 100 µM (inactive) | > 100 µM (inactive) | > 100 µM (inactive)
CCCCCc1c(Cl)nc(Cl)nc1Cl | 39.7 µM (inactive) | 21 µM (inactive) | 2.42 µM (inactive) | 43.3 µM (inactive) | 2.18 µM (inactive) | 5.69 µM (inactive) | 4.95 µM (inactive) | 0.303 µM (active) | 2.59 µM (inactive) | 0.625 µM (active) | 16.1 µM (inactive) | 12.7 µM (inactive) | 10.4 µM (inactive) | 8.99 µM (inactive) | 3.03 µM (inactive) | 16.5 µM (inactive) |  | 3.1 µM (inactive) | 12.1 µM (inactive) | 11.1 µM (inactive)
O=c1c2ccccc2nc(N/N=C/c2ccccc2O)n1-c1ccccc1 | 4.8 µM (inactive) | 3.62 µM (inactive) | 2.65 µM (inactive) | 7.82 µM (inactive) | 4.5 µM (inactive) | 4.59 µM (inactive) | 7.64 µM (inactive) |  | 12.2 µM (inactive) | 4.84 µM (inactive) | 5.18 µM (inactive) | 7.18 µM (inactive) | 1.99 µM (inactive) | 3.57 µM (inactive) |  | 11.4 µM (inactive) | 7.67 µM (inactive) | 6.24 µM (inactive) | 6.43 µM (inactive) | 2.13 µM (inactive)
CC(C)CC(NC(=O)C(CC(C)C)NC(=O)C(Cc1c[nH]cn1)NC(=O)C(C)NC(=O)C(NC(=O)C(C)NC(=O)C(Cc1c[nH]c2ccccc12)NC(=O)C(CCC(=O)O)NC(=O)C(N)Cc1ccccc1)C(C)C)C(N)=O (stereo not given) (H-FEWAVAHLL-NH2; configuration not given here) | > 12.5 µM (inactive) | > 100 µM (inactive) | > 12.5 µM (inactive) | > 12.5 µM (inactive) | > 12.5 µM (inactive) | > 12.5 µM (inactive) | > 12.5 µM (inactive) | > 12.5 µM (inactive) | > 12.5 µM (inactive) | > 12.5 µM (inactive) | > 12.5 µM (inactive) | > 12.5 µM (inactive) | > 12.5 µM (inactive) | > 12.5 µM (inactive) | > 12.5 µM (inactive) | 63.4 µM (inactive) | > 12.5 µM (inactive) | > 12.5 µM (inactive) |  | > 12.5 µM (inactive)
O=C(/C=C\c1ccccc1)Oc1ccc(/C=C2\CCC/C(=C\c3ccc(OC(=O)/C=C\c4ccccc4)cc3)C2=O)cc1 | > 100 µM (inactive) | > 100 µM (inactive) | > 100 µM (inactive) | > 100 µM (inactive) |  | > 100 µM (inactive) | > 100 µM (inactive) | > 100 µM (inactive) |  | > 100 µM (inactive) | > 100 µM (inactive) | > 100 µM (inactive) | > 100 µM (inactive) | > 100 µM (inactive) | > 100 µM (inactive) | > 100 µM (inactive) | > 100 µM (inactive) | > 100 µM (inactive) | > 100 µM (inactive) | > 100 µM (inactive)
O=S1(=O)c2cnccc2N=C(NCc2cccc3ccccc23)N1c1ccccc1 | > 57.7 µM (inactive) | 35.9 µM (inactive) | 1.87 µM (inactive) | > 73.3 µM (inactive) | 29.4 µM (inactive) | > 43 µM (inactive) | 13.2 µM (inactive) | 12.2 µM (inactive) | > 100 µM (inactive) | 30.6 µM (inactive) | > 91.2 µM (inactive) | > 100 µM (inactive) | > 93.1 µM (inactive) | 30 µM (inactive) | 13.6 µM (inactive) | > 100 µM (inactive) |  | 27 µM (inactive) | 64.9 µM (inactive) | > 100 µM (inactive)
S=c1nc(Nc2ccc(Cl)cc2)c2c3c(sc2[nH]1)CCCC3 |  | 74.5 µM (inactive) | 54 µM (inactive) | > 100 µM (inactive) | 38.5 µM (inactive) | > 100 µM (inactive) | > 100 µM (inactive) | 64.7 µM (inactive) | > 100 µM (inactive) | 37 µM (inactive) | > 100 µM (inactive) | > 100 µM (inactive) |  | 57.7 µM (inactive) | 24.4 µM (inactive) | > 100 µM (inactive) | > 100 µM (inactive) | > 100 µM (inactive) | > 100 µM (inactive) | > 100 µM (inactive)
COc1ccc(CCNC(=O)Cc2ccccc2CO)cc1OC | > 100 µM (inactive) | > 100 µM (inactive) | > 100 µM (inactive) | > 100 µM (inactive) | > 100 µM (inactive) | > 100 µM (inactive) | > 100 µM (inactive) | > 100 µM (inactive) |  | > 100 µM (inactive) | > 100 µM (inactive) | > 100 µM (inactive) | > 100 µM (inactive) | > 100 µM (inactive) | > 100 µM (inactive) | > 100 µM (inactive) | > 100 µM (inactive) | > 100 µM (inactive) | > 100 µM (inactive) | > 100 µM (inactive)
Cc1ncc(-c2nnnn2-c2ccccc2)c(C(=O)O)n1 | > 100 µM (inactive) | > 100 µM (inactive) | > 100 µM (inactive) | > 100 µM (inactive) | > 100 µM (inactive) | > 100 µM (inactive) | > 100 µM (inactive) | > 100 µM (inactive) | > 100 µM (inactive) | > 100 µM (inactive) |  | > 100 µM (inactive) | > 100 µM (inactive) | > 100 µM (inactive) | > 100 µM (inactive) | > 100 µM (inactive) | 33.3 µM (inactive) | > 100 µM (inactive) | > 100 µM (inactive) | > 100 µM (inactive)
